Usually melting point stands for the temperature of the solid-liquid transition.

Compound `O=CN(O)C(COCc1ccccc1)CS(=O)(=O)N1CCN(c2cc(Cl)ncn2)CC1` (stereo not drawn) [N-[2-(benyloxy)-1-({[4(6-chloropyrimidin-4-yl)piperazino]sulphonyl}methyl)ethyl]-N-hydroxyformamide] came in with a melting point of 118 to 120 °C.

As for `O=CN(O)C(CCc1cccnc1)CS(=O)(=O)N1CCC(Oc2ccc(Cl)cn2)CC1` (stereo not drawn) [Example 14, N-{1-[({4-[(5-Chloropyridin-2-yl)oxy]piperidino}sulfonyl)methyl]-3-pyridin-3-ylpropyl}-N-hydroxyformamide], the melting point was in the range of 130 to 140 °C.

Compound `O=CN(O)C(CCc1ccccc1)CS(=O)(=O)N1CCN(c2cc(Cl)ncn2)CC1` (stereo not drawn) [N-[1-({[4-(6-chloropyrimidin-4-yl)piperazino]sulphonyl}methyl)-3-phenylpropyl]-N-hydroxyformamide] registered a melting point of 155 to 157 °C.

For the origin of these results see patent publication US6734184B1, “Arylpiperazines and their use as metalloproteinase inhibiting agents (MMP)” (AstraZeneca AB, priority 1998, dated 2004).
